According to PubChem BioAssay AID1963423 (Molecular Pharmacology Branch, DTP, NCI, 2024):
pIC50: −log10 of the molar value.

System: 439559-082-T-J2-PDC complex spheroid growth
Experiment: Anticancer human tumor 439559-082-T-J2-PDC patient-derived colon adenocarcinoma cell line growth inhibition [Asc]
Details: for pIC50: curve of first compound; for viability, T/C: stronger effect = lower value
In short: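 Complex spheroids combining tumor cells with HUVEC endothelial cells and human MSCs, at 37 degrees C, 5% CO2; agents tested alone or combined, half-log dilutions from at or near clinical Cmax, or 10 microM if Cmax unknown.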

[1] = second compound 0.00316 µM, first compound 0.00949 µM
[2] = second compound 0.00316 µM, first compound 0.03 µM
[3] = second compound 0.00316 µM, first compound 0.0949 µM
[4] = second compound 0.00316 µM, first compound 0.3 µM
[5] = second compound 0.00316 µM, first compound 0.949 µM
[6] = second compound 0.00316 µM, first compound 3 µM
[7] = second compound 0.01 µM, first compound 0.00949 µM
[8] = second compound 0.01 µM, first compound 0.03 µM
[9] = second compound 0.01 µM, first compound 0.0949 µM
[10] = second compound 0.01 µM, first compound 0.3 µM
[11] = second compound 0.01 µM, first compound 0.949 µM
[12] = second compound 0.01 µM, first compound 3 µM
[13] = second compound 0.0316 µM, first compound 0.00949 µM
[14] = second compound 0.0316 µM, first compound 0.03 µM
[15] = second compound 0.0316 µM, first compound 0.0949 µM
[16] = second compound 0.0316 µM, first compound 0.3 µM
[17] = second compound 0.0316 µM, first compound 0.949 µM
[18] = second compound 0.0316 µM, first compound 3 µM
[19] = second compound 0.1 µM, first compound 0.00949 µM
[20] = second compound 0.1 µM, first compound 0.03 µM
[21] = second compound 0.1 µM, first compound 0.0949 µM
[22] = second compound 0.1 µM, first compound 0.3 µM
[23] = second compound 0.1 µM, first compound 0.949 µM
[24] = second compound 0.1 µM, first compound 3 µM
[25] = second compound 0.316 µM, first compound 0.00949 µM
[26] = second compound 0.316 µM, first compound 0.03 µM
[27] = second compound 0.316 µM, first compound 0.0949 µM
[28] = second compound 0.316 µM, first compound 0.3 µM
[29] = second compound 0.316 µM, first compound 0.949 µM
[30] = second compound 0.316 µM, first compound 3 µM
[31] = second compound 1 µM, first compound 0.00949 µM
[32] = second compound 1 µM, first compound 0.03 µM
[33] = second compound 1 µM, first compound 0.0949 µM
[34] = second compound 1 µM, first compound 0.3 µM
[35] = second compound 1 µM, first compound 0.949 µM
[36] = second compound 1 µM, first compound 3 µM
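Also: spheroids exposed to agents for 7 days starting day 3 after seeding.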
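For viability, T/C in this document: percent of DMSO vehicle control viability with 100% = vehicle.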

CCN1C(C(=O)NC23CCC(C(=O)O)(CC2)CC3)C(c2cccc(Cl)c2F)C2(C(=O)Nc3cc(Cl)ccc32)C12CCCCC2 (centres undefined) + CNC(C)C(=O)NC1CN(S(=O)(=O)c2cccc(S(=O)(=O)N3CCC4CCC(C(=O)NC(c5ccccc5)c5ccccc5)N4C(=O)C(NC(=O)C(C)NC)C3)c2)CCC2CCC(C(=O)NC(c3ccccc3)c3ccccc3)N2C1=O
pIC50 (second compound 0.00316 µM): < 5.52
pIC50 (second compound 0.01 µM): < 5.52
pIC50 (second compound 0.0316 µM): < 5.52
pIC50 (second compound 0.1 µM): < 5.52
pIC50 (second compound 0.316 µM): < 5.52
pIC50 (second compound 1 µM): < 5.52
viability, T/C [1]: 116%
viability, T/C [2]: 92.9%
viability, T/C [3]: 107%
viability, T/C [4]: 106%
viability, T/C [5]: 95.6%
viability, T/C [6]: 107%
viability, T/C [7]: 109%
viability, T/C [8]: 103%
viability, T/C [9]: 100%
viability, T/C [10]: 99.8%
viability, T/C [11]: 113%
viability, T/C [12]: 96.5%
viability, T/C [13]: 103%
viability, T/C [14]: 106%
viability, T/C [15]: 103%
viability, T/C [16]: 102%
viability, T/C [17]: 115%
viability, T/C [18]: 110%
viability, T/C [19]: 95.9%
viability, T/C [20]: 101%
viability, T/C [21]: 117%
viability, T/C [22]: 99.1%
viability, T/C [23]: 105%
viability, T/C [24]: 107%
viability, T/C [25]: 105%
viability, T/C [26]: 94.2%
viability, T/C [27]: 91.3%
viability, T/C [28]: 85.3%
viability, T/C [29]: 96.5%
viability, T/C [30]: 87.1%
viability, T/C [31]: 78.6%
viability, T/C [32]: 87.7%
viability, T/C [33]: 76.8%
viability, T/C [34]: 75.8%
viability, T/C [35]: 88.8%
viability, T/C [36]: 79.5%

Cc1nc(N2CCC3(CC2)COC(C)C3N)c(CO)nc1Sc1ccnc(N)c1Cl (centres undefined) + CNC(C)C(=O)NC1CN(S(=O)(=O)c2cccc(S(=O)(=O)N3CCC4CCC(C(=O)NC(c5ccccc5)c5ccccc5)N4C(=O)C(NC(=O)C(C)NC)C3)c2)CCC2CCC(C(=O)NC(c3ccccc3)c3ccccc3)N2C1=O
pIC50 (second compound 0.00316 µM): < 5.52
pIC50 (second compound 0.01 µM): < 5.52
pIC50 (second compound 0.0316 µM): < 5.52
pIC50 (second compound 0.1 µM): < 5.52
pIC50 (second compound 0.316 µM): < 5.52
pIC50 (second compound 1 µM): 5.64
viability, T/C [1]: 98.2%
viability, T/C [2]: 91.5%
viability, T/C [3]: 89.7%
viability, T/C [4]: 94%
viability, T/C [5]: 95.4%
viability, T/C [6]: 71.5%
viability, T/C [7]: 98.4%
viability, T/C [8]: 104%
viability, T/C [9]: 95.3%
viability, T/C [10]: 83%
viability, T/C [11]: 87.3%
viability, T/C [12]: 73.3%
viability, T/C [13]: 104%
viability, T/C [14]: 98.8%
viability, T/C [15]: 89.4%
viability, T/C [16]: 97.2%
viability, T/C [17]: 75.8%
viability, T/C [18]: 69.5%
viability, T/C [19]: 93.7%
viability, T/C [20]: 96.7%
viability, T/C [21]: 95.5%
viability, T/C [22]: 84.2%
viability, T/C [23]: 81.3%
viability, T/C [24]: 64.8%
viability, T/C [25]: 94.4%
viability, T/C [26]: 88.1%
viability, T/C [27]: 79%
viability, T/C [28]: 72.1%
viability, T/C [29]: 67%
viability, T/C [30]: 59.9%
viability, T/C [31]: 72.9%
viability, T/C [32]: 76.8%
viability, T/C [33]: 69.3%
viability, T/C [34]: 62.9%
viability, T/C [35]: 66.6%
viability, T/C [36]: 45%
